Data as given in US5030427A, “Gallium purification” (Monsanto Company, priority 1988, dated 1991).

Test: Aqueous solubilities of N-alkylalkano and N-H hydroxamic acids (25° C.)
Assay type: physicochemical
Text: It is desirable that the extractant for metals have low solubility in water in order to avoid loss of extractant in aqueous media. In Table 1, the aqueous solubilities of a number of hydroxamic acids are reported.

| SOLUBILITY (25° C.) (aqueous, 25° C.) | aqueous solubility (in words) (aqueous media) | Structure (SMILES) |
| --- | --- | --- |
| 5.48 × 10^-4 molarity |  | CCCCCCCCCC(=O)N(C)O [N-methyldecanohydroxamic acid] |
|  | relatively high aqueous solubility | CCCCCCCCC(=O)N(C)O [N-methylnonanohydroxamic acid] |
